Measured values: ChEMBL document CHEMBL4339253, “Anthraquinone-Based Specialized Metabolites from Rhizomes of Bulbine natalensis” (J Nat Prod, 2019)
The source made the active and inactive calls. The rule behind the calls is not given here.

Legend:
Format in all cases: functional, organism-based
Candida albicans [1] = test: Antimicrobial activity against Candida albicans ATCC 90028 assessed as inhibition of microbial growth by CLSI based method
Aspergillus fumigatus [2] = test: Antimicrobial activity against Aspergillus fumigatus ATCC 90906 assessed as inhibition of microbial growth by CLSI based method
Cryptococcus neoformans [3] = test: Antimicrobial activity against Cryptococcus neoformans ATCC 90113 assessed as inhibition of microbial growth by CLSI based method
Staphylococcus aureus [4] = test: Antimicrobial activity against methicillin-resistant Staphylococcus aureus ATCC 43300 assessed as inhibition of microbial growth by CLSI based method
[5] = tested on: Mycobacterium intracellulare; test: Antimicrobial activity against Mycobacterium intracellulare assessed as inhibition of microbial growth up to 20 ug/mL
Candida albicans [6] = test: Antimicrobial activity against Candida albicans ATCC 90028 assessed as inhibition of microbial growth up to 20 ug/mL by CLSI based method
Aspergillus fumigatus [7] = test: Antimicrobial activity against Aspergillus fumigatus ATCC 90906 assessed as inhibition of microbial growth up to 20 ug/mL by CLSI based method
Cryptococcus neoformans [8] = test: Antimicrobial activity against Cryptococcus neoformans ATCC 90113 assessed as inhibition of microbial growth up to 20 ug/mL by CLSI based method
Staphylococcus aureus [9] = test: Antimicrobial activity against methicillin-resistant Staphylococcus aureus ATCC 43300 assessed as inhibition of microbial growth up to 20 ug/mL by CLSI based method
Escherichia coli [10] = test: Antimicrobial activity against Escherichia coli ATCC 35218 assessed as inhibition of microbial growth up to 20 ug/mL by CLSI based method
Pseudomonas aeruginosa [11] = test: Antimicrobial activity against Pseudomonas aeruginosa ATCC 27853 assessed as inhibition of microbial growth up to 20 ug/mL by CLSI based method
Escherichia coli [12] = test: Antimicrobial activity against Escherichia coli ATCC 35218 assessed as inhibition of microbial growth by CLSI based method
Pseudomonas aeruginosa [13] = test: Antimicrobial activity against Pseudomonas aeruginosa ATCC 27853 assessed as inhibition of microbial growth by CLSI based method

SMILES | IC50 (Candida albicans [1]) | IC50 (Aspergillus fumigatus [2]) | IC50 (Cryptococcus neoformans [3]) | IC50 (Staphylococcus aureus [4]) | growth inhibition (GI) [5] | growth inhibition (GI) (Candida albicans [6]) | growth inhibition (GI) (Aspergillus fumigatus [7]) | growth inhibition (GI) (Cryptococcus neoformans [8]) | growth inhibition (GI) (Staphylococcus aureus [9]) | growth inhibition (GI) (Escherichia coli [10]) | growth inhibition (GI) (Pseudomonas aeruginosa [11]) | IC50 (Escherichia coli [12]) | IC50 (Pseudomonas aeruginosa [13])
C[C@@H]1[C@H](O)[C@@H](C)/C=C/C=C/C=C/C=C/C=C/C=C/C=C/[C@H](O[C@@H]2O[C@H](C)[C@@H](O)[C@H](N)[C@@H]2O)C[C@@H]2O[C@](O)(C[C@@H](O)C[C@@H](O)[C@H](O)CC[C@@H](O)C[C@@H](O)CC(=O)O[C@H]1C)C[C@H](O)[C@H]2C(=O)O [AMPHOTERICIN B] | < 0.1 µM | 1 µM | 0.2 µM | > 100 µM | – | – | – | – | – | – | – | – | –
COc1cc(OC)c(C2=C(C)C=C(O)C3C(=O)c4c(O)cccc4C(=O)C23)c(O)c1C(C)=O (centres undefined) | – | – | – | – | inactive | inactive | inactive | inactive | inactive | inactive | inactive | – | –
CC1=CC(O)=C2C(=O)c3c(O)cccc3C(c3ccc4c(c3O)C(=O)c3c(O)cc(C)cc3C4=O)=C2C1=O | – | – | – | – | inactive | inactive | inactive | inactive | inactive | inactive | inactive | – | –
CN[C@H](CC(C)C)C(=O)N[C@H]1C(=O)N[C@@H](CC(N)=O)C(=O)N[C@H]2C(=O)N[C@H]3C(=O)N[C@H](C(=O)N[C@H](C(=O)O)c4cc(O)cc(O)c4-c4cc3ccc4O)[C@H](O)c3ccc(c(Cl)c3)Oc3cc2cc(c3O[C@@H]2O[C@H](CO)[C@@H](O)[C@H](O)[C@H]2O[C@H]2C[C@](C)(N)[C@H](O)[C@H](C)O2)Oc2ccc(cc2Cl)[C@H]1O [VANCOMYCIN] | > 70 µM | > 70 µM | > 70 µM | 0.4 µM | – | – | – | – | – | – | – | 0.04 µM | > 0.07 µM
CC1=CC(O)=C2C(=O)c3c(O[C@@H]4O[C@H](CO)[C@@H](O)[C@H](O)[C@H]4O)cccc3C(c3ccc4c(c3O)C(=O)c3c(O)cc(C)cc3C4(O)[C@@H]3O[C@@H](C)[C@H](O)[C@@H](O)[C@H]3O)=C2C1=O (some centres undefined) | – | – | – | – | inactive | inactive | inactive | inactive | inactive | inactive | inactive | – | –
COc1cccc(OC)c1C(=O)N[C@@H]1C(=O)N2[C@@H]1SC(C)(C)[C@@H]2C(=O)O [METHICILLIN] | > 300 µM | > 300 µM | > 300 µM | 30 µM | – | – | – | – | – | – | – | – | 0.3 µM
COc1cc(O)c2c(c1)C(=O)c1cc(O[C@@H]3O[C@H](CO)[C@@H](O)[C@H](O)[C@H]3O)c(C(=O)O)c(C)c1C2=O | – | – | – | – | inactive | inactive | inactive | inactive | inactive | inactive | inactive | – | –
C[C@@H](O)[C@H]1C(=O)N2C(C(=O)O)=C(S[C@@H]3CN[C@H](C(=O)N(C)C)C3)[C@H](C)[C@H]12 [MEROPENEM] | > 300 µM | > 300 µM | > 300 µM | 10 µM | – | – | – | – | – | – | – | 0.01 µM | 0.02 µM
OC(Cn1cncn1)(Cn1cncn1)c1ccc(F)cc1F [FLUCONAZOLE] | – | > 300 µM | 5 µM | > 300 µM | – | – | – | – | – | – | – | > 0.3 µM | > 0.3 µM
COc1cccc2cc3c(c(O)c12)[C@@H](C)OC3 | – | – | – | – | inactive | inactive | inactive | inactive | inactive | inactive | inactive | – | –
COc1cc(OC)c(C2=C3C(=O)C(C)=CC(O)=C3C(=O)c3c(O)cccc32)c(O)c1C(C)=O | – | – | – | – | inactive | inactive | inactive | inactive | inactive | inactive | inactive | – | –
Cc1cc(O)c2c(c1)C(O)([C@@H]1O[C@@H](C)[C@H](O)[C@@H](O)[C@H]1O)c1ccc([C@H]3c4cccc(O)c4C(=O)c4c(O)cc(C)c(O[C@@H]5OC[C@@H](O)[C@H](O)[C@H]5O)c43)c(O)c1C2=O (some centres undefined) | – | – | – | – | inactive | inactive | inactive | inactive | inactive | inactive | inactive | – | –
Cc1cc(O)c2c(c1)C(O)([C@@H]1O[C@@H](C)[C@H](O)[C@@H](O)[C@H]1O)c1ccc([C@H]3c4cccc(O)c4C(=O)c4c(O)cc(C)c(O)c43)c(O)c1C2=O (some centres undefined) | > 30 µM | > 30 µM | > 30 µM | 20 µM | – | – | – | – | – | – | – | – | –
COc1cc(OC)c(C2=C(C)C=C(O)C3C(=O)c4c(O[C@@H]5O[C@H](CO[C@@H]6O[C@H](CO)[C@@H](O)[C@H](O)[C@H]6O)[C@@H](O)[C@H](O)[C@H]5O)cccc4C(=O)C23)c(O)c1C(C)=O (some centres undefined) | – | – | – | – | inactive | inactive | inactive | inactive | inactive | inactive | inactive | – | –
CO/N=C(\C(=O)N[C@@H]1C(=O)N2C(C(=O)O)=C(COC(C)=O)CS[C@H]12)c1csc(N)n1 [CEFOTAXIME] | > 200 µM | > 200 µM | > 200 µM | 30 µM | – | – | – | – | – | – | – | 0.1 µM | 0.03 µM
COc1cc(O)c(C(C)=O)c(O)c1C1=C(C)C=C(O)C2C(=O)c3c(O)cccc3C(=O)C12 (centres undefined) | – | – | – | – | inactive | inactive | inactive | inactive | inactive | inactive | inactive | – | –
